Source: ChEMBL document CHEMBL4052768, “Discovery of novel 2-(3-phenylpiperazin-1-yl)-pyrimidin-4-ones as glycogen synthase kinase-3β inhibitors” (Bioorg Med Chem Lett, 2017)

Columns and labels:
[1] = biological target: Glycogen synthase kinase-3 beta (Homo sapiens, UniProt P49841); experiment: Inhibition of recombinant human GSK-3beta using prephosphorylated GS-1 peptide as substrate after 1 hr in presence of [gamma-32P]ATP by liquid scintillation spectrometric method
Cytochrome P450 2D6 [2] = biological target: T1, Cytochrome P450 2D6 (Homo sapiens, UniProt P10635); experiment: Inhibition of recombinant human CYP2D6; type: ADME
Cytochrome P450 1A2 [3] = biological target: T2, Cytochrome P450 1A2 (Homo sapiens, UniProt P05177); experiment: Inhibition of CYP1A2 in human liver microsomes; type: ADME
T2 sequence (P05177 whole entry): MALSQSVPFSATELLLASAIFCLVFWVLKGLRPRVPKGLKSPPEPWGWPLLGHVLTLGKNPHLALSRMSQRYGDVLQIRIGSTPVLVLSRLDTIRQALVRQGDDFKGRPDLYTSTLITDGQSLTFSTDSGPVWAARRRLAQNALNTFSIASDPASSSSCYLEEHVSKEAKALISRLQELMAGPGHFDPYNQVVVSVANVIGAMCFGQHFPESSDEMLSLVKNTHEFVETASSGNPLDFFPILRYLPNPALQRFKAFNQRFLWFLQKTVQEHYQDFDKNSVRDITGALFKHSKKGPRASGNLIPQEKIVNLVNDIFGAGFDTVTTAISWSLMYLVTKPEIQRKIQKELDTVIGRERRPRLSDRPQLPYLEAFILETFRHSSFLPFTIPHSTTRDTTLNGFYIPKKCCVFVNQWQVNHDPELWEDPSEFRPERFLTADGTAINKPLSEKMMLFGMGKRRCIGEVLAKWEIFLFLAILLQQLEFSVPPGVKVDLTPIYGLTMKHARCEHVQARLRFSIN

Cytochrome P450 3A4 [4] = biological target: T3, Cytochrome P450 3A4 (Homo sapiens, UniProt P08684); experiment: Inhibition of recombinant human CYP3A4; type: ADME
Cytochrome P450 1A2 [5] = biological target: T2, Cytochrome P450 1A2; experiment: Inhibition of recombinant human CYP1A2; type: ADME
Cytochrome P450 2D6 [6] = biological target: T1, Cytochrome P450 2D6; experiment: Inhibition of CYP2D6 in human liver microsomes; type: ADME
Cytochrome P450 3A4 [7] = biological target: T3, Cytochrome P450 3A4; experiment: Inhibition of CYP3A4 in human liver microsomes; type: ADME

Sequence of Glycogen synthase kinase-3 beta (P49841 whole entry): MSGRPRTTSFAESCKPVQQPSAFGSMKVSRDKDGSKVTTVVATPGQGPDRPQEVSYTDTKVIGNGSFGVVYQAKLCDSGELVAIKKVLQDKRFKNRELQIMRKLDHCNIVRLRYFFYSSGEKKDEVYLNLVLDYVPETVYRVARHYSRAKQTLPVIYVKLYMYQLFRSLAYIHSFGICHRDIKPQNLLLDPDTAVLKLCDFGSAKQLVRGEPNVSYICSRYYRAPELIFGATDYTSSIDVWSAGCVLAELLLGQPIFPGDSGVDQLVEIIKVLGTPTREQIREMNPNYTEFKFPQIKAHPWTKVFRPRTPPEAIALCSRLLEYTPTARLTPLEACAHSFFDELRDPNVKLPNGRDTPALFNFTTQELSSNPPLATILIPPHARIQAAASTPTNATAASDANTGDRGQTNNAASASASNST
T3 sequence (P08684 whole entry): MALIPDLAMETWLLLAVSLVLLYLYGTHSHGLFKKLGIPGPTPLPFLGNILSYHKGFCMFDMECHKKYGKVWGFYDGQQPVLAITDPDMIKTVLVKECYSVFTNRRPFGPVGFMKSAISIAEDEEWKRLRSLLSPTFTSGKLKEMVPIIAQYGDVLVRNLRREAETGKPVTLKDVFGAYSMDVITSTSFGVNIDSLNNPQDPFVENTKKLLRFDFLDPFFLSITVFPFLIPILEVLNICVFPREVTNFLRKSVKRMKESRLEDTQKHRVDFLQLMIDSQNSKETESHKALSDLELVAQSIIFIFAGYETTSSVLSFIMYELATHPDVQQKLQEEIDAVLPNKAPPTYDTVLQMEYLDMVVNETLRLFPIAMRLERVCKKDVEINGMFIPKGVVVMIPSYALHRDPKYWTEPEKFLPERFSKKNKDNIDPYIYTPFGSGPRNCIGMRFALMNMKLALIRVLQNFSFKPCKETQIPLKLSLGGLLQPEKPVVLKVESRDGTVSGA
T1 sequence (P10635 whole entry): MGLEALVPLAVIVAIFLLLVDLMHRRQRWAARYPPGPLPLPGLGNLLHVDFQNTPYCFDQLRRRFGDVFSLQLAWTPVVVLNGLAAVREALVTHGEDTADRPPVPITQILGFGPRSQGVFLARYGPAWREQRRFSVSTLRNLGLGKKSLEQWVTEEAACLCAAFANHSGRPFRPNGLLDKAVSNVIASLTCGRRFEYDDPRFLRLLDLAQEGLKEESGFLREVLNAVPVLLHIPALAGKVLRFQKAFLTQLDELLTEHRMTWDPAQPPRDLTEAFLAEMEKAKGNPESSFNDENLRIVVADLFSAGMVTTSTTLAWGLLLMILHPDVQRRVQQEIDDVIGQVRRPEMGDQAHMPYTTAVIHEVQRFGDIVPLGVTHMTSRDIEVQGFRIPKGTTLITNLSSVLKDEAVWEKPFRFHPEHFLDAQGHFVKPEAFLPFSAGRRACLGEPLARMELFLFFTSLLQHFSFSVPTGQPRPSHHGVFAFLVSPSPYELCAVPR

Structure (SMILES) | IC50 [1] [nM] | further results
COc1ccc(C2CN(c3nc(-c4ccncn4)cc(=O)n3C)CCN2)cc1 (racemic) | 3.5 | 
Cn1c(N2CCNC(c3ccccc3F)C2)nc(-c2ccncn2)cc1=O (stereo unspecified) | 8.2 | 
Cn1c(N2CCNC(c3ccccc3Cl)C2)nc(-c2ccncn2)cc1=O (racemic) | 2.6 | 
Cn1c(N2CCN[C@@H](c3ccc(Cl)cc3)C2)nc(-c2ccncc2)cc1=O | 11 | 
Cn1c(N2CCNC(c3ccc(Cl)c(Cl)c3)C2)nc(-c2ccncn2)cc1=O (stereo unspecified) | 2.3 | 
COc1cc(F)cc(F)c1C1CN(c2nc(-c3ccncc3)cc(=O)n2C)CCN1 (stereo unspecified) | 2 | 
Cn1c(N2CCNC(c3cccc(Cl)c3)C2)nc(-c2ccncn2)cc1=O (racemic) | 1.1 | 
COc1ccc(C2CN(c3nc(-c4ccncn4)cc(=O)n3C)CCN2)cc1OC (stereo unspecified) | 7.8 | 
CCOc1ccccc1C1CN(c2nc(-c3ccncn3)cc(=O)n2C)CCN1 (stereo unspecified) | 20 | 
COc1cc(F)cc(F)c1C1CN(c2nc(-c3ccncn3)cc(=O)n2C)CCN1 (stereo unspecified) | 1.7 | 
Cn1c(N2CCNC(c3ccccc3F)C2)nc(-c2ccncc2)cc1=O (stereo unspecified) | 11 | 
COc1cc(F)ccc1C1CN(c2nc(-c3ccncc3)cc(=O)n2C)CCN1 (single isomer, unassigned; enantiomer 2) | 0.4 | IC50 (Cytochrome P450 2D6 [2]): 6000 nM; IC50 (Cytochrome P450 1A2 [3]): > 53000 nM; IC50 (Cytochrome P450 3A4 [4]): > 50000 nM
Cn1c(N2CCNC(c3ccccc3Br)C2)nc(-c2ccncn2)cc1=O (racemic) | 4.3 | 
COc1cc(F)ccc1C1CN(c2nc(-c3ccncc3)cc(=O)n2C)CCN1C(C)=O (stereo unspecified) | 1700 | 
COc1cccc(C2CN(c3nc(-c4ccncn4)cc(=O)n3C)CCN2)c1 (racemic) | 6.7 | 
COc1cc(F)ccc1C1CN(c2nc(-c3ccncc3)cc(=O)n2C)CCN1Cc1ccccc1 (stereo unspecified) | 1200 | 
COc1cc(F)ccc1C1CN(c2nc(-c3ccncn3)cc(=O)n2C)CCN1 (single isomer, unassigned; enantiomer 2) | 0.25 | IC50 (Cytochrome P450 2D6 [2]): 9100 nM; IC50 (Cytochrome P450 1A2 [3]): > 53000 nM
Cn1c(N2CCN[C@H](c3ccc(Cl)cc3)C2)nc(-c2ccncn2)cc1=O | 26 | 
COc1ccc(C2CN(c3nc(-c4ccncc4)cc(=O)n3C)CCN2)cc1 (racemic) | 4.7 | IC50 (Cytochrome P450 1A2 [3]): > 53000 nM; IC50 (Cytochrome P450 2D6 [6]): 45000 nM; IC50 (Cytochrome P450 3A4 [7]): > 53000 nM
COc1cccc(C2CN(c3nc(-c4ccncc4)cc(=O)n3C)CCN2)c1 (racemic) | 11 | IC50 (Cytochrome P450 2D6 [2]): 400 nM; IC50 (Cytochrome P450 1A2 [5]): > 50000 nM; IC50 (Cytochrome P450 3A4 [4]): > 50000 nM
COc1ccccc1C1CN(c2nc(-c3ccncn3)cc(=O)n2C)CCN1 (stereo unspecified) | 1.8 | 
Cn1c(N2CCNC(c3cccc(F)c3)C2)nc(-c2ccncn2)cc1=O (racemic) | 12 | 
Cn1c(N2CCNC(c3ccc(F)cc3)C2)nc(-c2ccncc2)cc1=O (racemic) | 18 | 
Cn1c(N2CCNC(c3ccc(Cl)cc3)C2)nc(-c2ccncc2)cc1=O (racemic) | 6.6 | 
COc1cc(F)ccc1C1CN(c2nc(-c3ccncc3)cc(=O)n2C)CCN1C (stereo unspecified) | 56 | 
Cn1c(N2CCNC(c3ccc(F)cc3)C2)nc(-c2ccncn2)cc1=O (racemic) | 8.6 | 
Cn1c(N2CCNC(c3ccc(Cl)cc3)C2)nc(-c2ccncn2)cc1=O (racemic) | 1.7 | 
Cn1c(N2CCNC(c3cccc(Br)c3)C2)nc(-c2ccncn2)cc1=O (racemic) | 2 | 

More lines, main results first:

IC50 [1] [nM] | Structure (SMILES) | further results
9.6 | Cn1c(N2CCNC(c3ccccc3Cl)C2)nc(-c2ccncc2)cc1=O (racemic) | 
18 | Cn1c(N2CCNC(c3ccccc3)C2)nc(-c2ccncc2)cc1=O (racemic) | 
24 | Cc1cc(F)ccc1C1CN(c2nc(-c3ccncc3)cc(=O)n2C)CCN1 (stereo unspecified) | 
0.9 | COc1cc(F)ccc1C1CN(c2nc(-c3ccncc3)cc(=O)n2C)CCN1 (racemic) | IC50 (Cytochrome P450 2D6 [2]): 1800 nM; IC50 (Cytochrome P450 1A2 [3]): > 53000 nM; IC50 (Cytochrome P450 3A4 [4]): > 53000 nM
1.8 | COc1ccccc1C1CN(c2nc(-c3ccncc3)cc(=O)n2C)CCN1 (racemic) | IC50 (Cytochrome P450 2D6 [2]): < 200 nM; IC50 (Cytochrome P450 1A2 [5]): > 50000 nM; IC50 (Cytochrome P450 3A4 [4]): > 50000 nM
26 | COc1cc(F)ccc1C1CN(c2nc(-c3ccncn3)cc(=O)n2C)CCN1C (stereo unspecified) | 
5.2 | COc1ccc(C2CN(c3nc(-c4ccncc4)cc(=O)n3C)CCN2)cc1OC (stereo unspecified) | 
8.1 | Cn1c(N2CCNC(c3ccc(Br)cc3)C2)nc(-c2ccncn2)cc1=O (racemic) | 
15 | Cn1c(N2CCNC(c3ccc(C#N)cc3)C2)nc(-c2ccncc2)cc1=O (racemic) | 
4.3 | Cn1c(N2CCNC(c3ccc(Cl)c(Cl)c3)C2)nc(-c2ccncc2)cc1=O (stereo unspecified) | 
1.2 | Cn1c(N2CCN[C@@H](c3ccc(Cl)cc3)C2)nc(-c2ccncn2)cc1=O | 
220 | COc1cc(F)ccc1C1CN(c2nc(-c3ccncn3)cc(=O)n2C)CCN1Cc1ccccc1 (stereo unspecified) | 
13 | Cn1c(N2CCNC(c3ccccc3Br)C2)nc(-c2ccncc2)cc1=O (racemic) | 
0.72 | COc1cc(F)ccc1C1CN(c2nc(-c3ccncn3)cc(=O)n2C)CCN1 (racemic) | IC50 (Cytochrome P450 2D6 [2]): 2700 nM; IC50 (Cytochrome P450 1A2 [3]): > 53000 nM
22 | Cn1c(N2CCNC(c3cccc(F)c3)C2)nc(-c2ccncc2)cc1=O (racemic) | 
1500 | COc1cc(F)ccc1C1CN(c2nc(-c3ccncn3)cc(=O)n2C)CCN1C(C)=O (stereo unspecified) | 
54 | COc1cc(F)ccc1C1CN(c2nc(-c3ccncc3)cc(=O)n2C)CCN1 (single isomer, unassigned; enantiomer 1) | IC50 (Cytochrome P450 2D6 [2]): 1000 nM; IC50 (Cytochrome P450 1A2 [3]): > 53000 nM; IC50 (Cytochrome P450 3A4 [4]): > 50000 nM
44 | COc1cc(F)ccc1C1CN(c2nc(-c3ccncn3)cc(=O)n2C)CCN1 (single isomer, unassigned; Enantiomer-1) | IC50 (Cytochrome P450 2D6 [2]): 3400 nM; IC50 (Cytochrome P450 1A2 [3]): > 53000 nM; IC50 (Cytochrome P450 3A4 [4]): > 50000 nM
110 | Cn1c(N2CCN[C@H](c3ccc(Cl)cc3)C2)nc(-c2ccncc2)cc1=O | 
5.4 | Cn1c(N2CCNC(c3cccc(Cl)c3)C2)nc(-c2ccncc2)cc1=O (racemic) | 
25 | CCOc1ccccc1C1CN(c2nc(-c3ccncc3)cc(=O)n2C)CCN1 (stereo unspecified) | 
7.4 | Cn1c(N2CCNC(c3ccc(C#N)cc3)C2)nc(-c2ccncn2)cc1=O (racemic) | 
22 | Cn1c(N2CCNC(c3ccc(Br)cc3)C2)nc(-c2ccncc2)cc1=O (racemic) | 
